Results as given in ChEMBL document CHEMBL3885861, “Open TG-GATES”.

Species: Rattus norvegicus
Test: Open TG-GATES - Regimen: Daily Repeat
Assay type: toxicity, organism-based, Sprague-Dawley
Parameters: regimen Daily Repeat, gender Male, age 6 weeks
Settings: in vivo, po, route gavage; for gamma-GTP / ALP / ALT / AST / BUN / CRE / Ca / Cl / DBIL / GLC / IP / K / LDH / Na / PL / RALB / TBIL / TC / TG / TP: tissue Plasma; for APTT / Bas / Eos / Fbg / Hb / Ht / Lym / MCH / MCHC / MCV / Mono / Neu / PT / Plat / RBC / Ret / WBC: tissue Blood; for KIDNEY_L / KIDNEY_R / KIDNEY_TOTAL: tissue Kidney; for LIVER: tissue Liver
[1] = 300 mg/kg, 72 h, dose level Middle, time 3 day
[2] = 300 mg/kg, […], dose level Middle, time 7 day
[3] = 300 mg/kg, […], dose level Middle, time 14 day
[4] = 300 mg/kg, […], dose level Middle, time 28 day

## COC(=O)C1=C(C)NC(C)=C(C(=O)OC)C1c1ccccc1[N+](=O)[O-] [NIFEDIPINE]
100 mg/kg, […], dose level Low, time 28 day
  gamma-GTP: 1 IU/L
[1]
  TERMINAL_BW: 223.2 g
  APTT: 18.7 s
  Bas: 0.4%
  Eos: 1%
  Fbg: 277 mg/dL
  Hb: 13.5 g/dL
  Ht: 41.7%
  Lym: 73%
  MCH: 21.3 pg
  MCHC: 32.3%
  MCV: 66.1 fL
  Mono: 3.6%
  Neu: 21%
  PT: 13.8 s
  Plat: 123.7 x10_4/uL
  RBC: 630.8 x10_4/ul
  Ret: 10.7%
  WBC: 113.4 x10_2/uL
  KIDNEY_L: 0.9 g
  KIDNEY_R: 0.9 g
  KIDNEY_TOTAL: 1.9 g
  LIVER: 11.7 g
  ALP: 1580.8 IU/L
  ALT: 48.2 IU/L
  AST: 68.4 IU/L
  BUN: 14.2 mg/dL
  CRE: 0.2 mg/dL
  Ca: 10.9 mg/dL
  Cl: 107.2 meq/L
  DBIL: 0.018 mg/dL
  GLC: 165.8 mg/dL
  IP: 7.1 mg/dL
  K: 4 meq/L
  LDH: 84.2 IU/L
  Na: 144.4 meq/L
  PL: 159.2 mg/dL
  RALB: 2.6 g/dL
  TBIL: 0.03 mg/dL
  TC: 89.4 mg/dL
  TG: 94.2 mg/dL
  TP: 5.6 g/dL
  gamma-GTP: 1 IU/L
[2]
  TERMINAL_BW: 254 g
  APTT: 15.7 s
  Bas: 0.2%
  Eos: 1%
  Fbg: 292.6 mg/dL
  Hb: 13.9 g/dL
  Ht: 42.7%
  Lym: 69.4%
  MCH: 20.7 pg
  MCHC: 32.6%
  MCV: 63.6 fL
  Mono: 3%
  Neu: 26%
  PT: 13.6 s
  Plat: 128.9 x10_4/uL
  RBC: 671 x10_4/ul
  Ret: 6.2%
  WBC: 113.1 x10_2/uL
  KIDNEY_L: 1 g
  KIDNEY_R: 1 g
  KIDNEY_TOTAL: 2 g
  LIVER: 12.8 g
  ALP: 1439.4 IU/L
  ALT: 43.8 IU/L
  AST: 68.6 IU/L
  BUN: 15.4 mg/dL
  CRE: 0.2 mg/dL
  Ca: 10.8 mg/dL
  Cl: 107.6 meq/L
  DBIL: 0.012 mg/dL
  GLC: 167 mg/dL
  IP: 7 mg/dL
  K: 3.9 meq/L
  Na: 145.6 meq/L
  PL: 154.4 mg/dL
  RALB: 2.8 g/dL
  TBIL: 0.022 mg/dL
  TC: 83.4 mg/dL
  TG: 102 mg/dL
  TP: 5.9 g/dL
  gamma-GTP: 1 IU/L
[3]
  TERMINAL_BW: 319.9 g
  APTT: 19 s
  Bas: 0%
  Eos: 1%
  Fbg: 281.4 mg/dL
  Hb: 14.8 g/dL
  Ht: 44.7%
  Lym: 74.8%
  MCH: 20.6 pg
  MCHC: 33.2%
  MCV: 62.1 fL
  Mono: 3%
  Neu: 20%
  PT: 14 s
  Plat: 117.6 x10_4/uL
  RBC: 719 x10_4/ul
  Ret: 4.9%
  WBC: 97.5 x10_2/uL
  KIDNEY_L: 1.2 g
  KIDNEY_R: 1.2 g
  KIDNEY_TOTAL: 2.3 g
  LIVER: 14.9 g
  ALP: 1236.4 IU/L
  ALT: 47.6 IU/L
  AST: 69.4 IU/L
  BUN: 18.2 mg/dL
  CRE: 0.2 mg/dL
  Ca: 10.9 mg/dL
  Cl: 107.6 meq/L
  DBIL: 0.012 mg/dL
  GLC: 172.6 mg/dL
  IP: 7 mg/dL
  K: 4.2 meq/L
  LDH: 48 IU/L
  Na: 143.8 meq/L
  PL: 150 mg/dL
  RALB: 2.7 g/dL
  TBIL: 0.018 mg/dL
  TC: 79.6 mg/dL
  TG: 115.8 mg/dL
  TP: 5.8 g/dL
  gamma-GTP: 1 IU/L
[4]
  TERMINAL_BW: 380.8 g
  APTT: 18.7 s
  Bas: 0.4%
  Eos: 1%
  Fbg: 277 mg/dL
  Hb: 13.5 g/dL
  Ht: 41.7%
  Lym: 73%
  MCH: 21.3 pg
  MCHC: 32.3%
  MCV: 66.1 fL
  Mono: 3.6%
  Neu: 21%
  PT: 13.8 s
  Plat: 123.7 x10_4/uL
  RBC: 630.8 x10_4/ul
  Ret: 10.7%
  WBC: 113.4 x10_2/uL
  KIDNEY_L: 1.3 g
  KIDNEY_R: 1.2 g
  KIDNEY_TOTAL: 2.5 g
  LIVER: 15.8 g
  ALP: 1129.6 IU/L
  ALT: 40 IU/L
  AST: 73.8 IU/L
  BUN: 17.8 mg/dL
  CRE: 0.3 mg/dL
  Ca: 10.3 mg/dL
  Cl: 106.6 meq/L
  DBIL: 0.012 mg/dL
  GLC: 165 mg/dL
  IP: 5.7 mg/dL
  K: 3.8 meq/L
  LDH: 56.2 IU/L
  Na: 143.8 meq/L
  PL: 146 mg/dL
  RALB: 2.7 g/dL
  TBIL: 0.026 mg/dL
  TC: 73 mg/dL
  TG: 126.8 mg/dL
